Laboratory results published in the supplement of paper PMC10307832.

Assays:
Experiment in all cases: relative viability (nuclei count vs DMSO), 5 days (fraction); higher = more cells survive
Palbociclib + Navitoclax = compound: CC(=O)c1c(C)c2cnc(Nc3ccc(N4CCNCC4)cn3)nc2n(C2CCCC2)c1=O [Palbociclib] + CC1(C)CCC(c2ccc(Cl)cc2)=C(CN2CCN(c3ccc(C(=O)NS(=O)(=O)c4ccc(N[C@H](CCN5CCOCC5)CSc5ccccc5)c(S(=O)(=O)C(F)(F)F)c4)cc3)CC2)C1 [Navitoclax] (partner 0.5 µM)
How it was run: (§1)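 A single step with final 0.05% Triton X-100, 1% formaldehyde and 1 ug/ml Hoechst fixed the cells and stained nuclei 5 days after treatment. Lung cancer cell lines in 1536-well plates had been treated by pin tool the day after seeding with one drug alone or a fixed anchor-drug dose plus five library-drug doses (not always all listed) in √10 steps, and nuclei were counted on 4× images. Relative viability is the ratio of nuclei in treated wells to nuclei in vehicle wells, taken as the median of duplicate plates.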

Palbociclib + Alpelisib = compound: CC(=O)c1c(C)c2cnc(Nc3ccc(N4CCNCC4)cn3)nc2n(C2CCCC2)c1=O [Palbociclib] + Cc1nc(NC(=O)N2CCC[C@H]2C(N)=O)sc1-c1ccnc(C(C)(C)C(F)(F)F)c1 [Alpelisib] (partner 2 µM)
How it was run: as §1

Palbociclib + Vorinostat = compound: CC(=O)c1c(C)c2cnc(Nc3ccc(N4CCNCC4)cn3)nc2n(C2CCCC2)c1=O [Palbociclib] + O=C(CCCCCCC(=O)Nc1ccccc1)NO [Vorinostat] (partner 1 µM)
How it was run: as §1

Palbociclib + Olaparib = compound: CC(=O)c1c(C)c2cnc(Nc3ccc(N4CCNCC4)cn3)nc2n(C2CCCC2)c1=O [Palbociclib] + O=C(c1cc(Cc2n[nH]c(=O)c3ccccc23)ccc1F)N1CCN(C(=O)C2CC2)CC1 [Olaparib] (partner 8 µM)
How it was run: as §1

NCI-H596 was tested, and the relative viability (Palbociclib + Navitoclax; first compound 0.01 µM) was 0.99, the relative viability (Palbociclib + Navitoclax; first compound 0.03162 µM) was 0.945 and the relative viability (Palbociclib + Navitoclax; first compound 0.1 µM) was 0.976. The relative viability (Palbociclib + Navitoclax; first compound 0.3162 µM) was 0.949, the relative viability (Palbociclib + Navitoclax; first compound 1 µM) was 1.1 and the relative viability (Palbociclib + Alpelisib; first compound 0.01 µM) was 0.555. The relative viability (Palbociclib + Alpelisib; first compound 0.03162 µM) was 0.462, the relative viability (Palbociclib + Alpelisib; first compound 0.1 µM) was 0.498 and the relative viability (Palbociclib + Alpelisib; first compound 0.3162 µM) was 0.477. It also gave a relative viability (Palbociclib + Alpelisib; first compound 1 µM) of 0.525, a relative viability (Palbociclib + Vorinostat; first compound 0.01 µM) of 0.656 and a relative viability (Palbociclib + Vorinostat; first compound 0.03162 µM) of 0.655. The relative viability (Palbociclib + Vorinostat; first compound 0.1 µM) was 0.589, the relative viability (Palbociclib + Vorinostat; first compound 0.3162 µM) was 0.768 and the relative viability (Palbociclib + Vorinostat; first compound 1 µM) was 0.57. It also gave a relative viability (Palbociclib + Olaparib; first compound 0.01 µM) of 0.708, a relative viability (Palbociclib + Olaparib; first compound 0.03162 µM) of 0.809 and a relative viability (Palbociclib + Olaparib; first compound 0.1 µM) of 0.724. It also gave a relative viability (Palbociclib + Olaparib; first compound 0.3162 µM) of 0.707 and a relative viability (Palbociclib + Olaparib; first compound 1 µM) of 0.68.

NCI-H1975 showed a relative viability (Palbociclib + Navitoclax; first compound 0.01 µM) of 1.2, a relative viability (Palbociclib + Navitoclax; first compound 0.03162 µM) of 1.02 and a relative viability (Palbociclib + Navitoclax; first compound 0.1 µM) of 1.08. It also gave a relative viability (Palbociclib + Navitoclax; first compound 0.3162 µM) of 0.918, a relative viability (Palbociclib + Navitoclax; first compound 1 µM) of 0.877 and a relative viability (Palbociclib + Alpelisib; first compound 0.01 µM) of 0.634. The relative viability (Palbociclib + Alpelisib; first compound 0.03162 µM) was 0.549, the relative viability (Palbociclib + Alpelisib; first compound 0.1 µM) was 0.543 and the relative viability (Palbociclib + Alpelisib; first compound 0.3162 µM) was 0.469. The relative viability (Palbociclib + Alpelisib; first compound 1 µM) was 0.353, the relative viability (Palbociclib + Vorinostat; first compound 0.01 µM) was 0.712 and the relative viability (Palbociclib + Vorinostat; first compound 0.03162 µM) was 0.649. It also gave a relative viability (Palbociclib + Vorinostat; first compound 0.1 µM) of 0.597, a relative viability (Palbociclib + Vorinostat; first compound 0.3162 µM) of 0.579 and a relative viability (Palbociclib + Vorinostat; first compound 1 µM) of 0.469. The relative viability (Palbociclib + Olaparib; first compound 0.01 µM) was 0.859, the relative viability (Palbociclib + Olaparib; first compound 0.03162 µM) was 0.762 and the relative viability (Palbociclib + Olaparib; first compound 0.1 µM) was 0.737. For the same cell line, the relative viability (Palbociclib + Olaparib; first compound 0.3162 µM) was 0.623 and the relative viability (Palbociclib + Olaparib; first compound 1 µM) was 0.61.

For EKVX, the relative viability (Palbociclib + Navitoclax; first compound 0.01 µM) was 1.11, the relative viability (Palbociclib + Navitoclax; first compound 0.03162 µM) was 0.826 and the relative viability (Palbociclib + Navitoclax; first compound 0.1 µM) was 0.755. For the same cell line, the relative viability (Palbociclib + Navitoclax; first compound 0.3162 µM) was 0.764, the relative viability (Palbociclib + Navitoclax; first compound 1 µM) was 0.476 and the relative viability (Palbociclib + Alpelisib; first compound 0.01 µM) was 1.04. It also gave a relative viability (Palbociclib + Alpelisib; first compound 0.03162 µM) of 0.716, a relative viability (Palbociclib + Alpelisib; first compound 0.1 µM) of 0.661 and a relative viability (Palbociclib + Alpelisib; first compound 0.3162 µM) of 0.604. It also gave a relative viability (Palbociclib + Alpelisib; first compound 1 µM) of 0.401, a relative viability (Palbociclib + Vorinostat; first compound 0.01 µM) of 0.702 and a relative viability (Palbociclib + Vorinostat; first compound 0.03162 µM) of 0.509. For the same cell line, the relative viability (Palbociclib + Vorinostat; first compound 0.1 µM) was 0.625, the relative viability (Palbociclib + Vorinostat; first compound 0.3162 µM) was 0.549 and the relative viability (Palbociclib + Vorinostat; first compound 1 µM) was 0.483. For the same cell line, the relative viability (Palbociclib + Olaparib; first compound 0.01 µM) was 0.915, the relative viability (Palbociclib + Olaparib; first compound 0.1 µM) was 0.647 and the relative viability (Palbociclib + Olaparib; first compound 0.3162 µM) was 0.608. It also gave a relative viability (Palbociclib + Olaparib; first compound 1 µM) of 0.438.

NCI-H460 was tested, and the relative viability (Palbociclib + Navitoclax; first compound 0.01 µM) was 1.08, the relative viability (Palbociclib + Navitoclax; first compound 0.03162 µM) was 0.944 and the relative viability (Palbociclib + Navitoclax; first compound 0.1 µM) was 0.912. For the same cell line, the relative viability (Palbociclib + Navitoclax; first compound 0.3162 µM) was 0.662, the relative viability (Palbociclib + Navitoclax; first compound 1 µM) was 0.175 and the relative viability (Palbociclib + Alpelisib; first compound 0.01 µM) was 0.476. The relative viability (Palbociclib + Alpelisib; first compound 0.03162 µM) was 0.413, the relative viability (Palbociclib + Alpelisib; first compound 0.1 µM) was 0.275 and the relative viability (Palbociclib + Alpelisib; first compound 0.3162 µM) was 0.217. For the same cell line, the relative viability (Palbociclib + Alpelisib; first compound 1 µM) was 0.0996, the relative viability (Palbociclib + Vorinostat; first compound 0.01 µM) was 0.669 and the relative viability (Palbociclib + Vorinostat; first compound 0.03162 µM) was 0.604. It also gave a relative viability (Palbociclib + Vorinostat; first compound 0.1 µM) of 0.454, a relative viability (Palbociclib + Vorinostat; first compound 0.3162 µM) of 0.369 and a relative viability (Palbociclib + Vorinostat; first compound 1 µM) of 0.115. For the same cell line, the relative viability (Palbociclib + Olaparib; first compound 0.01 µM) was 0.433, the relative viability (Palbociclib + Olaparib; first compound 0.03162 µM) was 0.289 and the relative viability (Palbociclib + Olaparib; first compound 0.1 µM) was 0.378. For the same cell line, the relative viability (Palbociclib + Olaparib; first compound 0.3162 µM) was 0.323 and the relative viability (Palbociclib + Olaparib; first compound 1 µM) was 0.165.

NCI-H23 gave a relative viability (Palbociclib + Navitoclax; first compound 0.01 µM) of 1.13, a relative viability (Palbociclib + Navitoclax; first compound 0.1 µM) of 0.79 and a relative viability (Palbociclib + Navitoclax; first compound 0.3162 µM) of 0.789. The relative viability (Palbociclib + Navitoclax; first compound 1 µM) was 0.572, the relative viability (Palbociclib + Alpelisib; first compound 0.01 µM) was 0.705 and the relative viability (Palbociclib + Alpelisib; first compound 0.1 µM) was 0.585. For the same cell line, the relative viability (Palbociclib + Alpelisib; first compound 0.3162 µM) was 0.588, the relative viability (Palbociclib + Alpelisib; first compound 1 µM) was 0.432 and the relative viability (Palbociclib + Vorinostat; first compound 0.01 µM) was 0.617. For the same cell line, the relative viability (Palbociclib + Vorinostat; first compound 0.03162 µM) was 0.531, the relative viability (Palbociclib + Vorinostat; first compound 0.1 µM) was 0.406 and the relative viability (Palbociclib + Vorinostat; first compound 0.3162 µM) was 0.509. It also gave a relative viability (Palbociclib + Vorinostat; first compound 1 µM) of 0.411, a relative viability (Palbociclib + Olaparib; first compound 0.01 µM) of 0.375 and a relative viability (Palbociclib + Olaparib; first compound 0.03162 µM) of 0.311. For the same cell line, the relative viability (Palbociclib + Olaparib; first compound 0.1 µM) was 0.325, the relative viability (Palbociclib + Olaparib; first compound 0.3162 µM) was 0.305 and the relative viability (Palbociclib + Olaparib; first compound 1 µM) was 0.289.

NCI-H2009 gave a relative viability (Palbociclib + Navitoclax; first compound 0.01 µM) of 1.15, a relative viability (Palbociclib + Navitoclax; first compound 0.03162 µM) of 1.17 and a relative viability (Palbociclib + Navitoclax; first compound 0.1 µM) of 0.908. It also gave a relative viability (Palbociclib + Navitoclax; first compound 0.3162 µM) of 0.896, a relative viability (Palbociclib + Navitoclax; first compound 1 µM) of 0.404 and a relative viability (Palbociclib + Alpelisib; first compound 0.01 µM) of 1.07. For the same cell line, the relative viability (Palbociclib + Alpelisib; first compound 0.03162 µM) was 1.06, the relative viability (Palbociclib + Alpelisib; first compound 0.1 µM) was 0.925 and the relative viability (Palbociclib + Alpelisib; first compound 0.3162 µM) was 0.874. It also gave a relative viability (Palbociclib + Alpelisib; first compound 1 µM) of 0.326, a relative viability (Palbociclib + Vorinostat; first compound 0.01 µM) of 0.716 and a relative viability (Palbociclib + Vorinostat; first compound 0.03162 µM) of 0.677. It also gave a relative viability (Palbociclib + Vorinostat; first compound 0.1 µM) of 0.69, a relative viability (Palbociclib + Vorinostat; first compound 0.3162 µM) of 0.53 and a relative viability (Palbociclib + Vorinostat; first compound 1 µM) of 0.295. The relative viability (Palbociclib + Olaparib; first compound 0.01 µM) was 0.691, the relative viability (Palbociclib + Olaparib; first compound 0.03162 µM) was 0.617 and the relative viability (Palbociclib + Olaparib; first compound 0.1 µM) was 0.545. For the same cell line, the relative viability (Palbociclib + Olaparib; first compound 0.3162 µM) was 0.54 and the relative viability (Palbociclib + Olaparib; first compound 1 µM) was 0.366.

With NCI-H2405 the relative viability (Palbociclib + Navitoclax; first compound 0.01 µM) was 0.866, the relative viability (Palbociclib + Navitoclax; first compound 0.1 µM) was 0.574 and the relative viability (Palbociclib + Navitoclax; first compound 0.3162 µM) was 0.729. The relative viability (Palbociclib + Navitoclax; first compound 1 µM) was 0.722, the relative viability (Palbociclib + Alpelisib; first compound 0.01 µM) was 0.792 and the relative viability (Palbociclib + Alpelisib; first compound 0.1 µM) was 0.441. For the same cell line, the relative viability (Palbociclib + Alpelisib; first compound 0.3162 µM) was 0.678, the relative viability (Palbociclib + Alpelisib; first compound 1 µM) was 0.494 and the relative viability (Palbociclib + Vorinostat; first compound 0.01 µM) was 1.01. The relative viability (Palbociclib + Vorinostat; first compound 0.03162 µM) was 1, the relative viability (Palbociclib + Vorinostat; first compound 0.1 µM) was 0.82 and the relative viability (Palbociclib + Vorinostat; first compound 0.3162 µM) was 0.837. It also gave a relative viability (Palbociclib + Vorinostat; first compound 1 µM) of 0.631, a relative viability (Palbociclib + Olaparib; first compound 0.01 µM) of 0.842 and a relative viability (Palbociclib + Olaparib; first compound 0.03162 µM) of 0.841. The relative viability (Palbociclib + Olaparib; first compound 0.1 µM) was 0.765, the relative viability (Palbociclib + Olaparib; first compound 0.3162 µM) was 0.682 and the relative viability (Palbociclib + Olaparib; first compound 1 µM) was 0.527.

Work on NCI-H1395 yielded a relative viability (Palbociclib + Navitoclax; first compound 0.01 µM) of 1.22, a relative viability (Palbociclib + Navitoclax; first compound 0.03162 µM) of 1.17 and a relative viability (Palbociclib + Navitoclax; first compound 0.1 µM) of 0.924. The relative viability (Palbociclib + Navitoclax; first compound 0.3162 µM) was 0.943, the relative viability (Palbociclib + Navitoclax; first compound 1 µM) was 0.656 and the relative viability (Palbociclib + Alpelisib; first compound 0.01 µM) was 1.05. It also gave a relative viability (Palbociclib + Alpelisib; first compound 0.03162 µM) of 0.835, a relative viability (Palbociclib + Alpelisib; first compound 0.1 µM) of 0.79 and a relative viability (Palbociclib + Alpelisib; first compound 0.3162 µM) of 0.875. It also gave a relative viability (Palbociclib + Alpelisib; first compound 1 µM) of 0.686, a relative viability (Palbociclib + Vorinostat; first compound 0.01 µM) of 0.844 and a relative viability (Palbociclib + Vorinostat; first compound 0.03162 µM) of 0.705. It also gave a relative viability (Palbociclib + Vorinostat; first compound 0.1 µM) of 0.602, a relative viability (Palbociclib + Vorinostat; first compound 0.3162 µM) of 0.724 and a relative viability (Palbociclib + Vorinostat; first compound 1 µM) of 0.496. It also gave a relative viability (Palbociclib + Olaparib; first compound 0.01 µM) of 0.429, a relative viability (Palbociclib + Olaparib; first compound 0.03162 µM) of 0.423 and a relative viability (Palbociclib + Olaparib; first compound 0.1 µM) of 0.421. The relative viability (Palbociclib + Olaparib; first compound 0.3162 µM) was 0.477 and the relative viability (Palbociclib + Olaparib; first compound 1 µM) was 0.514.
